# Values of other authors as cited in paper PMC10640708 (ACS chemical biology, 2018).
# Target: calcium sensing receptor (CaSR)
# Conditions: read-out: EC50 of CaSR activation; Ca2+ alone
smiles,measurement,value
[Ca+2] [Ca^2+],EC50,~4 mM
